Like-named read-outs stand apart in the source and are kept apart here. A value given as a limit tells only on which side of the number the result lay.

For series [1] the following is noted: human, in vivo.
For series [2] the following is noted: cited from earlier work.
For series [3] the following is noted: any of the three studies in atopic dermatitis.
For series [4] the following is noted: cited from earlier work. The source holds these as a separate data set.
Series [5] is described as follows: Phase II study. Conditions: Phase II SLR (QD only); log-transformed Ctrough week 4 vs API dose. The class given is in vivo, human (adult patients with atopic dermatitis).
The conditions of series [6]: phase III studies combined.

Regarding `N#CC[C@H](C1CCCC1)n1cc(-c2ncnc3[nH]ccc23)cn1` [ruxolitinib], in series [1], the “Dose-PK model: exponent on API dose (regression slope), estimate” value was 0.801; the “Dose-PK model: exponent on API dose, estimate” value is listed as 0.462; the “Dose-PK model: exponent on baseline IGA 3, estimate” value is on record as 0.322; the “Dose-PK model: exponent on region = Europe, estimate” value was 0.782. For the same compound, the “Mean Css as percent of the whole blood IC50 value” in series [1] was < 15%. In addition, the “Average Css” value in series [2] (25 mg BID oral) was ~ 350 nM. Also, the Maximum tolerated dose in series [2] (oral, patients with myelofibrosis) was 25 mg BID. Further, the “Changes in hematological parameters” value in series [3] was “no clinically relevant changes”. The “Bioavailability after oral dosing” value in series [4] is listed as “near-complete”. Further, the “Dose-PK model: exponent on API dose (regression slope), estimate” value in series [5] is 0.805. Besides, in series [6], the “Correlation between ruxolitinib Css quartiles and absolute neutrophil count” value is “no correlation”.

These data come from paper PMC8200345 (American Journal of Clinical Dermatology, 2021).
